In patent publication US20040180958A1, “Method of treatment” (priority 2002, published 2004):

Tests used:
[1] = system: micturition reflex of anaesthetised rats; assay: Continuous cystometry: effects of an alpha-2-delta ligand on the micturition reflex of anaesthetised rats; format: in vivo, rat
Description: Investigation into the Effects of an Alpha-2-delta Ligand on the Micturition Reflex of Anaesthetised Rats
Four caesarean derived (CD) rats weighing approximately 225 g were anaesthetised using urethane and continuous cystometry performed.
The animals were anaesthetised using urethane (1.2 g/kg, i.p.). Depth of anaesthesia was assessed by the stability of blood pressure and heart rate, and by an absence of hind limb withdrawal in response to paw pinch. Supplementary doses of urethane ([…], i.v.) were given where necessary.
The trachea was intubated to maintain a patent airway, an external jugular vein was cannulated for drug administration, and a common carotid artery was cannulated with a heparinised cannula (20 units/ml heparin in 0.9% w/v saline) for the measurement of arterial blood pressure.
Blood pressure was measured using a pressure transducer and the heart rate (HR) derived electronically on-line from the blood pressure using PoneMah (Linton Pty Ltd UK). Body temperature was monitored with a rectal temperature probe and maintained between 36-38° C. using a homeothermic blanket system (Harvard, UK). Animals were allowed to breathe air spontaneously throughout the duration of the experiment.
The urinary bladder was exposed by a midline abdominal incision. A cannula (c. 0.52 mm internal and 1.2 mm external diameter) was inserted into the bladder dome as a means of infusing the bladder while simultaneously recording intravesical bladder pressure. The bladder was infused with physiological saline (0.9%) at the rate of 0.046 ml/min, to simulate the maximal hourly diuresis rate of the rat (Klevmark B [1974]—Motility of the urinary bladder in cats during filling at physiological rates. I. Intravesical pressure patterns studied by a new method of cystometry. Acta Physiol Scand 90(3): 565-77).
Following the surgical procedure the animals were allowed to stabilise for c. 30 min. After the stabilisation period, cystometry was performed and bladder function (interval between micturition) in response to Gabapentin-HCl (0.3, 1, 3 and 10 mg/kg administered intravenously) was monitored.
Differences between treatment groups were examined using ANOVA.
Gabapentin-HCl (Tocris, UK) was dissolved in saline.

[2] = system: male spontaneously hypertensive rat (SHR); assay: Micturition frequency and bladder pressure by telemetry in the male spontaneously hypertensive rat (SHR); format: in vivo; conditions: 60 mg/kg s/c
Description: Effect of an Alpha-2-delta Ligand on Micturition Frequency and Bladder Pressure in the Male Spontaneously Hypertensive Rat (SHR)
Eight (8) male spontaneously hypertensive rats were prepared surgically with Data Sciences International (DSI) telemetry transponders (TL11M2-C50-PXT). Bladder pressure was continuously monitored with the aid of a pressure catheter placed via the dome of the bladder.
Bladder parameters (bladder pressure, voiding pressure and the number of voids) were recorded in response to placebo or treatment with 60 mg/kg Gabapentin administered subcutaneously (s/c).

| SMILES | melting point [°C] | micturition interval ([1]; 10 mg/kg intravenously, control 3.1±0.29 min, P<0.05) [min] | adverse effects on micturition efficiency, urine retention or bladder contraction upon voiding ([1]; 10 mg/kg, anaesthetised rats) | bladder capacity improved ([1]; anaesthetised rats, intravenous, as a consequence of the longer micturition interval) [%] | interval between voiding events ([1]; urethane-anaesthetised CD rats, 0.3, 1, 3 and 10 mg/kg intravenously, relative to control periods) | bladder capacity ([2]; FIG. 2) | micturition interval ([2]; P<0.05, FIG. 2) | average bladder pressure during the filling stages of the micturition cycle ([2]; P<0.05 relative to control periods, FIG. 3) |
| --- | --- | --- | --- | --- | --- | --- | --- | --- |
| CCC[C@@H](C)C[C@H](N)CC(=O)O.Cl | 142.5 to 142.7 | – | – | – | – | – | – | – |
| CCCC[C@@H](C)C[C@H](N)CC(=O)O.Cl | 142.5 to 143.3 | – | – | – | – | – | – | – |
| NCC1(CC(=O)O)CCCCC1 [gabapentin, 1-(aminomethyl)-cyclohexylacetic acid] | – | 9.89 ± 2.72 | did not have any adverse effects | 200 | significantly extended the interval between voiding events in a dose dependent manner | increased bladder capacity | significantly decreased | significantly decreased |
